# Key:
# ETB (h) = biological target: T1, ETB (h) (Homo sapiens, UniProt P24530); experiment: Receptor binding screen, [^125I]endothelin-1; details: 10 uM Concentration of Compound I-1-Z; read-out: Mean Value, percent inhibition of control specific binding: ETB (h)
# T1 construct: expressed in transfected cells; host or cells: CHO cells
# K^+V channel = experiment: Receptor binding screen, [^125I]α-dendrotoxin; parameters: species or system rat; details: 10 uM Concentration of Compound I-1-Z
# TXA2/PGH2 (h) (TP) = biological target: T2, TXA2/PGH2 (h) (TP) (Homo sapiens, UniProt P21731); experiment: Receptor binding screen, [^3H]SQ 29548, human platelets; details: 10 uM Concentration of Compound I-1-Z; read-out: Mean Value, percent inhibition of control specific binding: TXA2/PGH2 (h) (TP)
# T2 construct: human platelets; endogenous in cells; host or cells: human platelets
# T2 sequence (P21731 whole entry): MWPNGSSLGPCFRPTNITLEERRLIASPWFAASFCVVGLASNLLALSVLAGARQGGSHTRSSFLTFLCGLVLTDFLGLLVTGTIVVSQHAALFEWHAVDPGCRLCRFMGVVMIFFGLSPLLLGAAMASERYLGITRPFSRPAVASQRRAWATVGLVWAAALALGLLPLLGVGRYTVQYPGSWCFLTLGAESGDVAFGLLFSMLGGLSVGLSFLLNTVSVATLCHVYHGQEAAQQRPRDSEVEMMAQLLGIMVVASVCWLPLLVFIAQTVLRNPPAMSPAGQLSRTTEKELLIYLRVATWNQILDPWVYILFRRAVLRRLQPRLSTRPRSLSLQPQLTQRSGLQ
# 5-HT1A (h) = biological target: T3, 5-HT1A (h) (Homo sapiens, UniProt P08908); experiment: Receptor binding screen, [^3H]8-OH-DPAT; details: 10 uM Concentration of Compound I-1-Z; read-out: Mean Value, percent inhibition of control specific binding: 5-HT1A (h)
# T3 construct: expressed in transfected cells; host or cells: HEK-293 cells
# T3 sequence (P08908 whole entry): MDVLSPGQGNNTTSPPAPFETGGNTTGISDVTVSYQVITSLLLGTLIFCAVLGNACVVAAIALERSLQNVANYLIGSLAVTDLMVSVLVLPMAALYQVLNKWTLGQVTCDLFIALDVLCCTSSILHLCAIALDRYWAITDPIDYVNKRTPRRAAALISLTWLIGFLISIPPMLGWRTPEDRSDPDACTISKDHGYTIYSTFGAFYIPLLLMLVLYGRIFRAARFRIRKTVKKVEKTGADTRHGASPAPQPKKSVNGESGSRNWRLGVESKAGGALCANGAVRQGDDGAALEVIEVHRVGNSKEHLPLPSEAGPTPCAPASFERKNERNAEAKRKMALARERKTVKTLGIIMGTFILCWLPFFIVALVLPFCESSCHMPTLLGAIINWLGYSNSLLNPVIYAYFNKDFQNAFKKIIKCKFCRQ
# M2 (h) = biological target: T4, M2 (h) (Homo sapiens, UniProt P08172); experiment: Receptor binding screen, [^3H]AF-DX 384; details: 10 uM Concentration of Compound I-1-Z; read-out: Mean Value, percent inhibition of control specific binding: M2 (h)
# T4 construct: expressed in transfected cells; host or cells: CHO cells
# T4 sequence (P08172 whole entry): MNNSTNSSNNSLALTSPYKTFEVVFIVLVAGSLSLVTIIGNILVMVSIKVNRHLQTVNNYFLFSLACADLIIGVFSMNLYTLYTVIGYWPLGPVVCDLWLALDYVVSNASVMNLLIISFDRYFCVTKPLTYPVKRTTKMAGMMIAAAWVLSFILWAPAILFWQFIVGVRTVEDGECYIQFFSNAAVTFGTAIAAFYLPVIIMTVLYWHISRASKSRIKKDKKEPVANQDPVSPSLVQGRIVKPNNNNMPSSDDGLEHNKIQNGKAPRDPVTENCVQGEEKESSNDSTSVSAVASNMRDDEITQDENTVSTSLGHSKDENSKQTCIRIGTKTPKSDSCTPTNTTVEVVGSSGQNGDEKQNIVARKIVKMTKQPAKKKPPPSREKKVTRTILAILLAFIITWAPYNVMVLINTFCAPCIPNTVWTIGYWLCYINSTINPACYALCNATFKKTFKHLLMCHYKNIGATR
# [1] = test system: antibody-mediated collagen-induced arthritis; experiment: Anti-collagen antibody-induced arthritis in mice; type: in vivo; details: 30 mg/kg, i.p., once daily, days 1-10; FIG. 4
# Excerpt: Collagen-induced arthritis (CIA) in mice is widely used as an experimental model for rheumatoid arthritis (RA) in humans. CIA is mediated by autoantibodies to a particular region of type II collagen and complement. The murine CIA model used in this study is called antibody-mediated CIA, and can be induced by i.v. injection of a combination of different anti-type II collagen monoclonal antibodies (Terato K., et al. (1995). Autoimmunity. 22:137). Several compounds have been used to successfully block inflammation in this model, including anti-α1β1 and […] integrins monoclonal antibodies (de Fougerolles A. R. (2000) J. Clin. Invest. 105: 721).
# In this example, arthrogen-collagen-induced arthritis antibody kits were purchased from Chemicon International (Temecula, Calif.) and arthritis was induced using the manufacturer's protocol. Mice were injected i.v. with a cocktail of 4 anti-collagen Type II monoclonal antibodies (1.5 mg each) on day 0, followed by i.p. injection of 25 μg lipopolysaccharide (LPS) on day 2. […] Severity of arthritis in each limb was scored for 3-4 weeks as follows: 0=normal; 1=mild redness, slight swelling of ankle or wrist; 2=moderate redness and swelling of ankle or wrist; 3=severe redness and swelling of some digits, ankle and paw; 4=maximally inflamed limb, with a maximum score of 16 per animal. […]
# D4.4 (h) = biological target: T5, D4.4 (h) (Homo sapiens, UniProt P21917); experiment: Receptor binding screen, [^3H]spiperone; details: 10 uM Concentration of Compound I-1-Z; read-out: Mean Value, percent inhibition of control specific binding: D4.4 (h)
# T5 construct: expressed in transfected cells; host or cells: CHO cells
# T5 sequence (P21917 whole entry): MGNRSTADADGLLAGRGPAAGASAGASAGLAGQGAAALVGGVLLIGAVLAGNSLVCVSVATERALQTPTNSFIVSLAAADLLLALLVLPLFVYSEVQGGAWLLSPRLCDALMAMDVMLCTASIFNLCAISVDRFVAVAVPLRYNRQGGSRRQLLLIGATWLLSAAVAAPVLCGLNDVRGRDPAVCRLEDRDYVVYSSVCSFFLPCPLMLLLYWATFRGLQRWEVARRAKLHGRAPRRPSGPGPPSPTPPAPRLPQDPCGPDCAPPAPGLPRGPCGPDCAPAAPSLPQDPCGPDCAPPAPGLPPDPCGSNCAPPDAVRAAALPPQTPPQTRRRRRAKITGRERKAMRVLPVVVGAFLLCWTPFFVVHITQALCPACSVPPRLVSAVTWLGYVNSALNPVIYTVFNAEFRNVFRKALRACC
# 5-HT7 (h) = biological target: T6, 5-HT7 (h) (Homo sapiens, UniProt P34969); experiment: Receptor binding screen, [^3H]LSD; details: 10 uM Concentration of Compound I-1-Z; read-out: Mean Value, percent inhibition of control specific binding: 5-HT7 (h)
# T6 construct: expressed in transfected cells; host or cells: CHO cells
# T6 sequence (P34969 whole entry): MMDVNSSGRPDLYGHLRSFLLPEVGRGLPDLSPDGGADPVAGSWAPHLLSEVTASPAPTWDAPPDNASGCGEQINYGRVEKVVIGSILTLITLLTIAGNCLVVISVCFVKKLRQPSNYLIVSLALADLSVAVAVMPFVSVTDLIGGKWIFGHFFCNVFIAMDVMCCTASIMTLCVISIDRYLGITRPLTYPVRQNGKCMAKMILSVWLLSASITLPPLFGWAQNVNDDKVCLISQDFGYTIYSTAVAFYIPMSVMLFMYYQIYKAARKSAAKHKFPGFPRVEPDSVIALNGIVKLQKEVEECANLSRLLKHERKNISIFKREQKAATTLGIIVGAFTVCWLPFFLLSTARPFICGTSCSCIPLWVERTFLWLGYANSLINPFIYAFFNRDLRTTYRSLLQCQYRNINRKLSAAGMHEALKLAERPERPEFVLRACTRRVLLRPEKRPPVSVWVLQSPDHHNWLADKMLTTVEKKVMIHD
# H2 (h) = biological target: T7, H2 (h) (Homo sapiens, UniProt P25021); experiment: Receptor binding screen, [^125I]APT; details: 10 uM Concentration of Compound I-1-Z; read-out: Mean Value, percent inhibition of control specific binding: H2 (h)
# T7 construct: expressed in transfected cells; host or cells: CHO cells
# T7 sequence (P25021 whole entry): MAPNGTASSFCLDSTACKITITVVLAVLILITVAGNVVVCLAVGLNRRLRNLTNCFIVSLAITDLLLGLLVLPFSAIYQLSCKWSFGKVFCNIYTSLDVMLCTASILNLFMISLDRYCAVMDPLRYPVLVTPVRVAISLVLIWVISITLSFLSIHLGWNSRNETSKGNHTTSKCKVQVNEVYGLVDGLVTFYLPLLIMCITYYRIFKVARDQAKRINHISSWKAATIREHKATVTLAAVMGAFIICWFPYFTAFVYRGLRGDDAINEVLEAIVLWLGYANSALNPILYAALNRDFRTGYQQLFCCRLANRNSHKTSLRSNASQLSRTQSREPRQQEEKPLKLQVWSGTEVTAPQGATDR
# [2] = test system: experimental autoimmune encephalomyelitis; experiment: Experimental autoimmune encephalomyelitis (EAE), MOG peptide 35-55; type: in vivo, C57BL/6 mice; details: 40 mg/kg/dose once daily i.p. for 30 consecutive days
# Protocol: SSAO/VAP-1 is expressed on the endothelium of inflamed tissues/organs including brain and spinal cord. Its ability to support lymphocyte transendothelial migration may be an important systemic function of SSAO/VAP-1 in inflammatory diseases such as multiple sclerosis and Alzheimer's disease. An analysis of the use of SSAO inhibitors to treat inflammatory disease of the central nervous system (CNS) was performed through the use of an experimental autoimmune encephalomyelitis model (EAE) in C57BL/6 mice. EAE in rodents is a well-characterized and reproducible animal model of multiple sclerosis in human (Benson J. M. et al. (2000) J. Clin. Invest. 106:1031). Multiple sclerosis is a chronic immune-mediated disease of the CNS characterized by patchy perivenular inflammatory infiltrates in areas of demyelination and axonal loss. As an animal model, EAE can be induced in mice by immunization with encephalitogenic myelin antigens in the presence of adjuvant. […]
# To examine the role of SSAO/VAP-1 as a major regulator of the lymphocyte recruitment to the CNS, compound II-1-E, an SSAO inhibitor, was evaluated in an EAE model.
# Twenty female C57BL/6 mice were immunized subcutaneously (s.c). with myelin oligodendrocyte glycoprotein 35-55 (MOG peptide 35-55) in Complete Freund Adjuvant (CFA) on day 0, followed by i.p. injections of 500 ng pertussis toxin (one pertussis toxin injection on day 0, a second pertussis toxin injection on day 2). Groups of 10 mice received either compound II-1-E 40 mg/kg/dose, once daily i.p. for 30 consecutive days), or vehicle control (once/day for 30 consecutive days) all starting from one day after the immunization and all administered i.p. The animals were monitored for body weight, signs of paralysis and death according to a 0-5 scale of scoring system as follows: 1=limp tail or waddling gait with tail tonicity; 2=waddling gait with limp tail (ataxia); 2.5=ataxia with partial limb paralysis; 3=full paralysis of one limb; 3.5=full paralysis of one limb with partial paralysis of second limb; 4=full paralysis of two limbs; 4.5=moribund; 5=death. […]
# T1 sequence (P24530 27-442): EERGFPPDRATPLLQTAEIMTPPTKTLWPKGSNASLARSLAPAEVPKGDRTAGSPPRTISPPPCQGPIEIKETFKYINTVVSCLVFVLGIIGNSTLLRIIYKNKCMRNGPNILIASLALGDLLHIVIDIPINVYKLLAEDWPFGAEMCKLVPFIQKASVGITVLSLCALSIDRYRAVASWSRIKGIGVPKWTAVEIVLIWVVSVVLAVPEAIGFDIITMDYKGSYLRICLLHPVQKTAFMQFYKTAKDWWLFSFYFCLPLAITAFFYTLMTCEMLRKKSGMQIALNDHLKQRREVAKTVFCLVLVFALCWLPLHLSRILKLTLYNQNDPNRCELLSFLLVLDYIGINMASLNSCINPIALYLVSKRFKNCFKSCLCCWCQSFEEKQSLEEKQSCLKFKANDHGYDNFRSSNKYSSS
Compound,inhibition at 10 µM (ETB (h)),"Mean Value, percent inhibition of control specific binding: K^+V channel (K^+V channel)",inhibition at 10 µM (TXA2/PGH2 (h) (TP)),inhibition at 10 µM (5-HT1A (h)),inhibition at 10 µM (M2 (h)),final arthritis score and paw swelling [1],inhibition at 10 µM (D4.4 (h)),inhibition at 10 µM (5-HT7 (h)),inhibition at 10 µM (H2 (h)),day until which similar clinical scores between the two groups was not reached [2],mean clinical score of the treated group from day 14 onward [2],day at which disease reached 100% incidence ([2]; control group day 13)
"COc1ccc(C/C(=C/F)CN)cc1.Cl [Compound I-1-Z, (Z)-3-Fluoro-2-(4-methoxybenzyl)-allylamine hydrochloride]",-5%,−5%,4%,34%,3%,clearly reduced,2%,13%,16%,,,
"NC/C(F)=C\Cc1cc(F)cc(C(F)(F)F)c1 [II-1-E, (E)-2-Fluoro-4-(3-fluoro-5-trifluoromethylphenyl)-but-2-enylamine]",,,,,,,,,,38 days,well below that in the control group,24 days

# From US20110269811A1, “INHIBITORS OF SEMICARBAZIDE-SENSITIVE AMINE OXIDASE (SSAO) AND VAP-1 MEDIATED ADHESION USEFUL FOR TREATMENT AND PREVENTION OF DISEASES” (priority 2006, published 2011)
